Literature values, collected in patent US20080070991A1 (priority 2006, published 2008).

Test system: stilbene synthase
Conditions: Barbera cell suspensions treated with 10 μm methyljasmonate

CC/C=C\CC1C(=O)CCC1CC(=O)OC (stereo not shown) [methyljasmonate, Methyljasmonate]
stilbene synthase expression (gel analysis): up-regulation of the stilbene synthase
